Experimental data: patent publication US4504463A, “Process for making a lyophilized product for use in skeletal imaging” (Mallinckrodt, Inc., priority 1982, dated 1985)

Assay: Skeletal imaging with scintillation camera after intravenous injection
Format: in vivo, adult human
Settings: for results when used instead of AMDP: carrier replaced in Example II kit; for results when used instead of the disodium salt of HMDP: carrier replaced in Example I kit
Protocol: An imaging agent is prepared using this kit by adding about 5 ml of a pertechnetate-Tc99m physiological saline with an activity of about 75 mCi, from a commercial technetium source. The vial is agitated until the kit components are dissolved. About 1 ml of the agent is slowly injected, over a period of about 30 seconds, into an adult human subject weighing about 75 kg.

Oc1ccc(O)cc1 [hydroquinone]
results when used instead of gentisic acid (in vivo): substantially similar results

NCC(O)(P(=O)(O)O)P(=O)(O)O [ethane-1-hydroxy-2-amino-1,1-diphosphonic acid]
results when used instead of AMDP: substantially similar results

CNC(P(=O)(O)O)P(=O)(O)O [methane-N-methylaminodiphosphonic acid]
results when used instead of AMDP: substantially similar results

CN(C)C(P(=O)(O)O)P(=O)(O)O [methane-N,N-dimethylaminodiphosphonic acid]
results when used instead of AMDP: substantially similar results

stannous fluoride
results when used with or instead of stannous chloride (in vivo): substantially similar results

O=S(=O)([O-])[O-].[Sn+2] [stannous sulfate]
results when used with or instead of stannous chloride (reductant replaced or added in Example II kit): substantially similar results

O=P(O)(O)C(O)P(=O)(O)O [HMDP, methanehydroxydiphosphonic acid]
results when used instead of the disodium salt of HMDP: substantially similar results

O=P(O)(O)CP(=O)(O)O [MDP, methanediphosphonic acid]
results when used instead of the disodium salt of HMDP: substantially similar results

CC(O)(P(=O)(O)O)P(=O)(O)O [EHDP, ethane-1-hydroxy-1,1-diphosphonic acid]
results when used instead of the disodium salt of HMDP: substantially similar results

OCc1cc(O)ccc1O [gentisyl alcohol]
results when used instead of gentisic acid (stabilizer replaced in Example I kit): substantially similar results

NC(O)(P(=O)(O)O)P(=O)(O)O [methaneaminohydroxydiphosphonic acid]
results when used instead of AMDP: substantially similar results
